Experimental findings from paper PMC12114619, “Nifuroxazide and 4-Hydroxybenzhydrazone Derivatives as New Antiparasitic (Trypanosoma cruzi and Leishmania mexicana) and Anti-Mycobacterium tuberculosis Agents” (Pharmaceutics, 2025) are described below.

Series [1] deals with L. mexicana MHOM/MX/2017/UABJO17FCQEPS promastigotes. As to the kind of experiment: Leishmanicidal activity, L. mexicana promastigotes, FCQEPS isolate (MTT). The format is cell-based, Leishmania mexicana. The note with it: 48 h, FCQEPS strain. On the procedure: (§1) For leishmanicidal assays, the reference strain (MNYC/BZ/62/M379) and the isolate (MHOM/MX/2017/UABJO17FCQEPS) of L. mexicana were used. Promastigotes were cultured in RPMI 1640 medium supplemented with 10% FBS, 100 U/mL penicillin-100 […] streptomycin, and glutamine (2 mM). 100 µL parasites (5 × 10^5/mL) were added in a 96-well plate, and 100 µL of appropriate concentrations (0.78 to 200 µM) of each sample dissolved in DMSO and incubated for 48 h at 26 °C. Wells containing promastigotes with DMSO 0.2% were used as a negative control, and the reference drug glucantime was included as the positive control. The 3-(4,5-Dimethylthiazol-2-yl)-2,5-diphenyltetrazolium bromide (MTT) was used to measure metabolic activity. The IC50 values were calculated with the probit statistical tool. All samples were evaluated in triplicate in three independent experiments.

The test system of series [2] is M. tuberculosis H37Rv (ATCC 27294). As to the kind of experiment: Anti-Mycobacterium activity, microplate Alamar Blue Assay (MABA). In kind it is cell-based, Mycobacterium tuberculosis. The note with it: Mycobacterium tuberculosis, H37Rv strain, minimum concentration achieving 90% inhibition. As to the method: The reference strain H37Rv (ATCC 27294) of M. tuberculosis was utilized to assess anti-M. tuberculosis activity using the microplate Alamar Blue Assay (MABA), as previously reported. Samples underwent evaluation in triplicate independent experiments. Isoniazid, rifampicin, moxifloxacin, and linezolid were included as reference drugs, and the minimum drug concentration that achieved 90% inhibition was recorded as the minimum inhibitory concentration (MIC).
For orientation: Resazurin is reduced to fluorescent resorufin, in cell work by metabolically active cells.

Series [3] concerns T. cruzi NINOA (MHOM/MX/1994/NINOA) strain epimastigotes. As to the kind of experiment: Trypanocidal activity, T. cruzi epimastigotes, NINOA strain (resazurin). The format is cell-based, Trypanosoma cruzi. The note with it: 48 h.
For series [4], the system named is L. mexicana MNYC/BZ/62/M379 promastigotes. As to the kind of experiment: Leishmanicidal activity, L. mexicana promastigotes, M379 strain (MTT). In kind it is cell-based, Leishmania mexicana. The note with it: 48 h. On the procedure: as §1
A short description of series [5]: Cytotoxicity on macrophages (MTT). The note with it: mouse, Cytotoxicity (CC50) Macrophages J774.2. The format is cell-based, mouse.
Description: Cytotoxicity was assessed on J774.2 mouse macrophage cells (ATCC® TIB-67, ATCC, Manassas, VA, USA). Cells were cultured in RPMI medium supplemented with 10% SFB, 100 U µg/mL penicillin-100 mg/mL streptomycin, and glutamine (2 mM) at 37 °C and in a 5% CO2 atmosphere. A known concentration of cells (1 × 10^6/mL) was incubated with the compounds at different concentrations (0.78 to 200 µM) for 48 h at 37 °C in a CO2 atmosphere (5%). Wells containing cells treated with 0.2% DMSO were used as a negative control. MTT was employed to evaluate the metabolic activity. Next, the cell viability was calculated (%), and the cytotoxic concentration (CC50) was determined with probit analysis. All samples were evaluated in triplicate in three independent experiments.
Series [6] deals with T. cruzi strain A1 epimastigotes. Briefly: Trypanocidal activity, T. cruzi epimastigotes, A1 strain (resazurin). In kind it is cell-based, Trypanosoma cruzi. The note with it: 48 h.

SMILES strings stand for the structures. Converted amounts (≈) assume the structure as drawn. Some results are limits rather than exact numbers.

As usually defined, the IC50 is the concentration needed to halve the response being measured. Low readings indicate higher potency, high ones lower potency. Usually MIC stands for the least concentration at which growth counts as inhibited. A lower MIC goes with a more susceptible organism. For orientation: CC50 means the concentration giving 50% cytotoxicity. A high value points to lower toxicity to the cells.

Take `O=C(N/N=C/c1ccc2ccccc2c1)c1ccc(O)cc1` [Nfz-20]: the IC50 in series [1] (Leishmania mexicana) is > 200 µM; in series [3] (Trypanosoma cruzi), > 100 µM; in series [4], 28.4 ± 2.8 µM; in series [4] (Leishmania mexicana), < 30 µM; in series [6] it was 24.5 ± 2 µM; in series [6] (Trypanosoma cruzi), 24.4 µM. Also, the MIC in series [2] is > 100 µg/mL. The “IC50 T. cruzi NINOA” value in series [3] is reported as “loss of the activity”. This compound had a CC50 at 48 h in series [5] of 88.3 ± 3.9 µM.

`COc1c(N2C[C@@H]3CCCN[C@@H]3C2)c(F)cc2c(=O)c(C(=O)O)cn(C3CC3)c12` [Moxifloxacin, reference compound] had an MIC in series [2] of 0.184 µg/mL (≈ 0.458 µM).

`NNC(=O)c1ccncc1` [Isoniazid, reference compound] gave an MIC in series [2] of 0.039 µg/mL (≈ 0.284 µM).

Consider `O=C(N/N=C/c1ccc(O)cc1)c1ccc(O)cc1` [Nfz-9], for which the figures for the IC50 in series [1] (Leishmania mexicana), in series [3] (Trypanosoma cruzi) and in series [6] (Trypanosoma cruzi) were 94.3 ± 5.9 µM, 24.9 ± 3.2 µM and > 100 µM, respectively. This compound also displayed an MIC in series [2] of 94.1 µg/mL (≈ 367 µM). In addition, the CC50 at 48 h in series [5] was 82.7 ± 4.4 µM.

Turning to `CC1CS(=O)(=O)CCN1/N=C/c1ccc([N+](=O)[O-])o1` (stereo not shown) [Nifurtimox, reference compound], the IC50 in series [3] is 7.09 ± 0.2 µM; in series [3] (listed as Nfx), 7 µM; in series [3] (Trypanosoma cruzi) it was > 7 µM; in series [6] (Trypanosoma cruzi), 19.3 ± 0.8 µM.

`CC(=O)NC[C@H]1CN(c2ccc(N3CCOCC3)c(F)c2)C(=O)O1` [Linezolid, reference compound]: the MIC in series [2] was 0.33 µg/mL (≈ 0.978 µM).

Consider `CC(=O)Nc1ccc(/C=N/NC(=O)c2ccc(O)cc2)cc1` [Nfz-24], for which the IC50 in series [1] (Leishmania mexicana) was found to be 55.8 ± 3.5 µM; in series [4], 54.2 ± 4 µM; in series [4] (Leishmania mexicana), 54.1 µM; in series [6] it was 22.2 ± 1.4 µM; in series [6] (Trypanosoma cruzi), 22.1 µM. In addition, in series [2], the MIC is > 100 µg/mL. For the same compound, in series [5], the CC50 at 48 h was > 100 µM.

Consider `Cc1ccc(/C=N/NC(=O)c2ccc(O)cc2)cc1` [Nfz-7], for which the IC50 in series [1] (Leishmania mexicana) was 103 ± 2.1 µM; in series [3], 26 ± 2.9 µM; in series [3] (Trypanosoma cruzi) it was 26 µM; in series [6], 75.2 ± 8.8 µM; in series [6] (Trypanosoma cruzi), > 70 µM. Moreover, in series [2], the MIC stood at 98.3 µg/mL (≈ 387 µM). The same compound returned a CC50 at 48 h in series [5] of 91.7 ± 5.1 µM.

Turning to `O=C(N/N=C/c1cccs1)c1ccc(O)cc1` [Nfz-3], the IC50 was 49.8 ± 5 µM in series [1] (Leishmania mexicana); 51 ± 2.8 µM in series [3]; > 50 µM in series [3] (Trypanosoma cruzi); > 200 µM in series [4] (Leishmania mexicana); 20 ± 1.9 µM in series [6]; 19.9 µM in series [6] (Trypanosoma cruzi). The minimal inhibitory concentration (MIC) in series [2] is > 100 µg/mL. The “IC50 L. mexicana M379” value in series [4] is “no leishmanicidal effects”.

With `CCc1ccc(/C=N/NC(=O)c2ccc(O)cc2)cc1` [Nfz-8], the half-inhibitory concentration (IC50) in series [1] (Leishmania mexicana) was > 200 µM; in series [3], 14.5 ± 4.4 µM; in series [3] (Trypanosoma cruzi), 14.4 µM; in series [6], 7.28 ± 2.2 µM; in series [6] (Trypanosoma cruzi), 7.2 µM. Also, the MIC in series [2] turned out to be 79.4 µg/mL (≈ 296 µM). In addition, in series [5], the CC50 at 48 h was > 100 µM.

With `O=C(Cn1ccnc1[N+](=O)[O-])NCc1ccccc1` [Benznidazole, reference compound], the IC50 in series [3] (listed as Bzn) is 30 µM; in series [3] (Trypanosoma cruzi), > 30 µM; in series [6] it was 39.1 ± 0.7 µM; in series [6] (Trypanosoma cruzi), 39 µM.

Turning to `O=C(N/N=C/c1ccc([N+](=O)[O-])s1)c1ccc(O)cc1` [Nfz-1], the IC50 in series [1] was 32.9 ± 7 µM; in series [1] (Leishmania mexicana), < 40 µM; in series [3] it was 11.9 ± 3.2 µM; in series [3] (Trypanosoma cruzi), 11.9 µM; in series [4] (Leishmania mexicana), > 200 µM; in series [6] it was 14 ± 1.9 µM. For the same compound, in series [6] (Trypanosoma cruzi), the IC50 is < 15 µM. In series [4], the “IC50 L. mexicana M379” value is reported as “no leishmanicidal effects”. In series [5], this compound displayed a CC50 at 48 h of 43.3 ± 2.7 µM.

Regarding `CO[C@H]1/C=C/O[C@@]2(C)Oc3c(C)c(O)c4c(O)c(c(/C=N/N5CCN(C)CC5)c(O)c4c3C2=O)NC(=O)/C(C)=C\C=C\[C@H](C)[C@H](O)[C@@H](C)[C@@H](O)[C@@H](C)[C@H](OC(C)=O)[C@@H]1C` [Rifampin, reference compound], the MIC in series [2] came out at 0.074 µg/mL (≈ 0.0899 µM).
